Measurements from paper PMC12592400, “A unique inhibitor conformation selectively targets the DNA polymerase PolC of Gram-positive priority pathogens” (Nature Communications, 2025).
Values joined by “and” are separate entries in the source; they are usually repeats but may differ in a detail not shown here. Equal entries are not always repeated.

Target: T1, E. faecium PolC^F1276L (exonuclease-inactivated) (Enterococcus faecium, UniProt A0A9X4B319, D429A/E431A/F1274L)
T1 sequence (A0A9X4B319 1-1450 D429A/E431A/F1274L): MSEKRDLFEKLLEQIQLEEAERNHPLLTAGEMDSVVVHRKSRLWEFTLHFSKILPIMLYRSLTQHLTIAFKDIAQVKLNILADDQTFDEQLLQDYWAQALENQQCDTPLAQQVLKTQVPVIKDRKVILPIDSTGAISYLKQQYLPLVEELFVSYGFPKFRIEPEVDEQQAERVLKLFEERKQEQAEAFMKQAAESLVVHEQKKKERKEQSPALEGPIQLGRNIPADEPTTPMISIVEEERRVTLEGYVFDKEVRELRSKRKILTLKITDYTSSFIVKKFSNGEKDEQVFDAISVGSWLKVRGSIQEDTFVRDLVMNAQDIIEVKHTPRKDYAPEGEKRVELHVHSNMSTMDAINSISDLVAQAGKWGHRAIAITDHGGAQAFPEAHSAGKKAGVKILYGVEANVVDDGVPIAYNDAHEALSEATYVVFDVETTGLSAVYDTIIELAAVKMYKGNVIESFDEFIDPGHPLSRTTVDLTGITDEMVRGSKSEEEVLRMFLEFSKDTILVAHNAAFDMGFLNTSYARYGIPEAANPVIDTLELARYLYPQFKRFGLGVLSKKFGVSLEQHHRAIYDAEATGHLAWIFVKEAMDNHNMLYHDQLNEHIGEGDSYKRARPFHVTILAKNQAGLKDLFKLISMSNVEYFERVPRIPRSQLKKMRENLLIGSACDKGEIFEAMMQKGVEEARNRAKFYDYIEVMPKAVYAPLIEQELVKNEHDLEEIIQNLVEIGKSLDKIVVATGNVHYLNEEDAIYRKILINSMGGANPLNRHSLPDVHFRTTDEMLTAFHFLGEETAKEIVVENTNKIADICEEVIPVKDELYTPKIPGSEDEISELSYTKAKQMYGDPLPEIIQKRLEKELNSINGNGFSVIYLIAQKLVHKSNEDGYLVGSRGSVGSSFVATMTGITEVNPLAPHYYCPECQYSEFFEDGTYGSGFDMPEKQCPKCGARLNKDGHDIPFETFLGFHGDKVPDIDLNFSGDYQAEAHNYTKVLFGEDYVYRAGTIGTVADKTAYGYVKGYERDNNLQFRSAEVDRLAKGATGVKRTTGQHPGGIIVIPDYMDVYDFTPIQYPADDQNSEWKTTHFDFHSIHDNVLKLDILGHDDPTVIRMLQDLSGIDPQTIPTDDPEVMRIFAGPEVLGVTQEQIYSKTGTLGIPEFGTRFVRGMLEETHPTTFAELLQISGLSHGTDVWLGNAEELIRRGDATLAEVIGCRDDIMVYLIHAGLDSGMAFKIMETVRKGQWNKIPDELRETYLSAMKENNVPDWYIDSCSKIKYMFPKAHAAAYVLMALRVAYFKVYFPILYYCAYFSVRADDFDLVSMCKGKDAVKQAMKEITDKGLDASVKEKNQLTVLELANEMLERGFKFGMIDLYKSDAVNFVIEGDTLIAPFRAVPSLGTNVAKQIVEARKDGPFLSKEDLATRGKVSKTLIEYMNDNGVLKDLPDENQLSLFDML
Assay: Real-time DNA primer extension assay
Assay type: biochemical
Conditions: for rate of activity (slope of fluorescence intensity change over time): Fig. 4b source data, F1276L
Text: The genes for PolC (locus_tag: MIBBHLJO_01574) and DnaE (locus_tag: MIBBHLJO_00911) from E. faecium ATCC 700221 were codon-optimized for expression in E. coli and synthesized in vector pET28b by Twist Bioscience (San Francisco, CA). Expression constructs for variant PolC proteins were created with QuikChange Site-Directed Mutagenesis (Agilent) with oligonucleotides listed in Supplementary Table 3. F1276L, F1276S, and A1281T were introduced to assess the effect of these mutations on inhibition by ACX compounds. Mutations D972A and D974A were introduced to inactivate the polymerase activity and mutations D431A and E433A were introduced to inactivate the exonuclease activity (Fig. 1d, Supplementary Fig. 1).
Polymerase activity was monitored in real-time[31],[32] with a 42-nt long 5’ carboxyfluorescein-labelled DNA oligonucleotide template strand (DNASP8_42) annealed to a 30-nt primer oligonucleotide (oMU014). Polymerase activity in this assay is monitored by measuring fluorescence quenching of the labelled DNA template as a result of primer extension by PolC (for details see Supplementary Fig. 1b, c). Both primers were HPLC purified. Primer extension assays were performed in Reaction Buffer (see Gel-based polymerase and exonuclease assays) supplemented with 0.5 mg/mL BSA, 0.05% Tween20 and 25 uM of each dNTP (SRB) in 384-well Black Round Bottom plates (Corning 4514). The polymerase was diluted in the SRB and incubated for at least 5 min in the presence of inhibitor or solvent, with a final solvent concentration of 1%. The reaction was initiated by the addition of an equal volume of DNA substrate in SRB as described below. Fluorescence emission data was collected with a BMG Labtech PHERAstar FSX reader for 30 min at room temperature.
Compounds were dispensed with an Echo acoustic liquid handler (Beckman Coulter). All compounds were dissolved to 1 mM and 10 mM stocks in 100% DMSO and transferred to Echo LDV or PP source plates (Labcyte, Inc., CA), then dispensed to 384-well plates with a Labcyte Echo550 or Echo650 acoustic dispenser at volumes of 2.5 to 100 nL per well. […] A Mantis microfluidic liquid dispenser (Formulatrix) was used to dispense 5 µL polymerase and 5 µL substrate DNA (individually diluted in SRB) per well. […] The final concentration of DNA was 70 nM.
Data were analysed and standard error of the means (SEM) determined in Prism 8.4.2 and 10.2.3 (GraphPad). Raw time-course polymerase activity was plotted against time, with SEM of triplicates determined. The rate of activity (represented by signal quenching) was determined during the first 8 min (linear stage) by calculating the slope of fluorescence intensity change (converted to a positive value) over time (in seconds). The slopes were then normalized to percentage activity (%); per ‘replicate range’, 100% activity was defined as polymerase activity in the absence of inhibitor (polymerase control), and 0% activity was determined in the absence of polymerase (DNA signal; negative control). The SEM was determined between ‘replicate ranges’. The IC50 was determined using the dose-response (inhibition) nonlinear regression ‘[Inhibitor] vs. response (three parameters)’ without constraints.

| Structure (SMILES) | IC50 | rate of activity (slope of fluorescence intensity change over time) (inhibitor 4 uM) | rate of activity (slope of fluorescence intensity change over time) (inhibitor 5.75 uM) | rate of activity (slope of fluorescence intensity change over time) (inhibitor 8.8 uM) | rate of activity (slope of fluorescence intensity change over time) (inhibitor 20 uM) | rate of activity (slope of fluorescence intensity change over time) (inhibitor 30 uM) | rate of activity (slope of fluorescence intensity change over time) (inhibitor 45 uM) | rate of activity (slope of fluorescence intensity change over time) (inhibitor 67.5 uM) | rate of activity (slope of fluorescence intensity change over time) (inhibitor 100 uM) | rate of activity (slope of fluorescence intensity change over time) (inhibitor 150 uM) |
| --- | --- | --- | --- | --- | --- | --- | --- | --- | --- | --- |
| O=c1[nH]c(NCc2ccc3c(c2)OC(F)(F)O3)nc2c(F)nn(CCO)c12 [ACX-801, 5-(((2,2-difluorobenzo[d][1,3]dioxol-5-yl)methyl)amino)-3-fluoro-1-(2-hydroxyethyl)-1,6-dihydro-7H-pyrazolo[4,3-d]pyrimidin-7-one] | > 225 µM | 29.6 and 27.7 and 30.1 | 28.5 and 26.4 and 28.8 | 26.7 and 28.0 and 26.2 | 25.3 and 26.0 and 26.9 | 26.3 and 26.7 and 25.0 | 25.4 | – | – | – |
| O=c1[nH]c(NCc2ccc(Cl)c(Cl)c2)nc2ncn(CCN3CCOCC3)c12 [IBZ, N^2-(3,4-dichlorobenzyl)-7-(2-[1-morpholinyl]ethyl)guanine] | > 225 µM | 28.2 and 29.1 and 29.0 | 29.9 and 30.4 | 26.3 and 30.0 | 26.8 and 26.3 | 27.4 and 27.1 | 25.1 and 26.5 and 24.8 | 23.8 and 26.5 and 24.8 | 24.9 and 23.0 and 25.8 | 23.2 |
